BindingDB's records for patent US12247004 (Oxford Drug Design, 2025)

Experiments:
Isoleucine--tRNA ligase = Isoleucine--tRNA ligase (Escherichia coli (strain K12), UniProt P00956); experiment: Enzyme Inhibition Assay
Description: (§1) Single Point Percentage InhibitionThe activity of the pathogenic aaRSs was monitored by measuring AMP production using the commercial kit AMP-Glo (Promega, Madison, USA).Ligand stock solutions were prepared in 100% DMSO at 10 mM concentration. An assay buffer consisting of 100 mM Tris HCl pH 7.6, 40 mM MgCl, 20 mM KCl and 150 mM NaCl was prepared in dH2O. […] A substrate solution was also prepared in assay buffer with 50 mM L-leucine, 10 mM ATP and 100 mg/mL tRNA.

Leucine--tRNA ligase = Leucine--tRNA ligase (Escherichia coli (strain K12), UniProt P07813); experiment: Enzyme Inhibition Assay
Sequence of Leucine--tRNA ligase (P07813 whole entry): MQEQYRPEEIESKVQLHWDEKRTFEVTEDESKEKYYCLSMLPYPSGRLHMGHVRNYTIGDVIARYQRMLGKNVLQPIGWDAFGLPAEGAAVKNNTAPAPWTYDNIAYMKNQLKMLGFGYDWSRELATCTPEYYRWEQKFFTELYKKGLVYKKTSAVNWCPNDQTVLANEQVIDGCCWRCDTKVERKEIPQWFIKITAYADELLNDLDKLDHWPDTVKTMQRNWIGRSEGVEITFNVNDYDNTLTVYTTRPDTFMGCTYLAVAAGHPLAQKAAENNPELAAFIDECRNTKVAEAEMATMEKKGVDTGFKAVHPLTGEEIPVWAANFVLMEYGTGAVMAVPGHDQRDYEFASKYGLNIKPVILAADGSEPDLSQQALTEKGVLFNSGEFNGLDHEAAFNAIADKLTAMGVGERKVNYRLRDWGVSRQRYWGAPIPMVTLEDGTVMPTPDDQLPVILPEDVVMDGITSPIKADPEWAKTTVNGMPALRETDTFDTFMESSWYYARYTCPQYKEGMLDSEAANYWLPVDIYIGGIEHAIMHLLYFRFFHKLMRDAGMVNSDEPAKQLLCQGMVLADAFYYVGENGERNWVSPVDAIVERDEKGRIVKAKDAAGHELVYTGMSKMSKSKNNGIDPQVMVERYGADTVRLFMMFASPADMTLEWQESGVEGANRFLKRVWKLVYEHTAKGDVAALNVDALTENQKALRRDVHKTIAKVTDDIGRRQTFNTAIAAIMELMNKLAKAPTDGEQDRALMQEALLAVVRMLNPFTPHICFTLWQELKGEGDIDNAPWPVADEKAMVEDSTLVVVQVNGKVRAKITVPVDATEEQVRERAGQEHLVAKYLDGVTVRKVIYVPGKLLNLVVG
Description: as §1

Sequence of Isoleucine--tRNA ligase (P00956 whole entry): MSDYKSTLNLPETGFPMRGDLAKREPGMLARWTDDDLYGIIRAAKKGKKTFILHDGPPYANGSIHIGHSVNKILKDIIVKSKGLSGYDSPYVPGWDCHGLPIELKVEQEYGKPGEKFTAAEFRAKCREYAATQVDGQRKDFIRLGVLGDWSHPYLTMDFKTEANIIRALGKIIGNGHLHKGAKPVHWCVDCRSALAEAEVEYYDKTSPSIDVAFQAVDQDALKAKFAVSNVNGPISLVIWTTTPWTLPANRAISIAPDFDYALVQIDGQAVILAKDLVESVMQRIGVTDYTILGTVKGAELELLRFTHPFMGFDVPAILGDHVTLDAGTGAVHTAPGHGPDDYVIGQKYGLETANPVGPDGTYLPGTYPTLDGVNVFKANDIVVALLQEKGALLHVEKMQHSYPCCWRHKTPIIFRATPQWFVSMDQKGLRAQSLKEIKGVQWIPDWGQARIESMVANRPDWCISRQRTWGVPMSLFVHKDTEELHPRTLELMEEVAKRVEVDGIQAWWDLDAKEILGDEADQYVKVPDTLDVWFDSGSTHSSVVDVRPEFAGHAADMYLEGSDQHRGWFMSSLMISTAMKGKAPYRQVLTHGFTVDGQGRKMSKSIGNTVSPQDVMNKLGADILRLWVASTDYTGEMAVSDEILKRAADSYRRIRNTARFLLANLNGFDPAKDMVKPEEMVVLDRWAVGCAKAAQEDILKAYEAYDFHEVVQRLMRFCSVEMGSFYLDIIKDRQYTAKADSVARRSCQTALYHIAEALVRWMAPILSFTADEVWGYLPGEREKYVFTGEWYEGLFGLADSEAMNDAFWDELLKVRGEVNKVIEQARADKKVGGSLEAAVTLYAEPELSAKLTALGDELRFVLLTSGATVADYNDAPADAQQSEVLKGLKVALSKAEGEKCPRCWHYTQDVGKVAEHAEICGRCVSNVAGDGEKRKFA

Structure (SMILES): CC[C@H](C)[C@H](N)C(=O)N=S(N)(=O)c1ccc2ccccc2c1 (some centres not stated) [US12247004, Compound ANASIA-030]
- IC50 (Isoleucine--tRNA ligase): 9.59 µM

Structure (SMILES): CC(C)C[C@H](N)C(=O)N=S(N)(=O)c1cc[nH]n1 (some centres not stated) [US12247004, Compound ANASIA-064]
- IC50 (Leucine--tRNA ligase): 2.17 µM
